The test system of the data set is outpatients with major depressive disorder. As to the kind of experiment: STAR*D trial: treatment-emergent suicidal ideation (TESI) by QIDS-SR16 item 12 during citalopram treatment. The conditions noted are these: citalopram typically starting at 20 mg/day, up to 14 weeks; comparison group n=1742; 53 participants missing data excluded. Type of data set: in vivo, human. The source says: DNA was collected from a clinically-representative cohort of 1938 outpatients with major depressive disorder enrolled in the Sequenced Treatment Alternatives to Relieve Depression (STAR*D) trial. Outpatients 18-75 years of age with a baseline 17-item Hamilton Depression Rating Scale (see Hamilton et al., J. Neurol. Neurosurg. Psychiatry, 23: 56-62 (1960); and Hamilton, Br. J. Soc. Clin. Psychol., 6(4): 278-296 (1967)) (HRSD17) score of ≧14 who met the Diagnostic and Statistical Manual of Mental Disorders (DSM)-IV criteria for non-psychotic major depressive disorder (MDD) were eligible for the trial. […]
The 16-item Quick Inventory of Depressive Symptomatology—Self-report (QIDS-SR16) was used as a measure of symptom severity (see Rush et al., Int. J. Methods Psychiatr. Res., 9: 45-59 (2000): Rush et al., Biol. Psychiatry, 54(5): 573-583 (2003); Trivedi et al., Psychol. Med., 34(1): 73-82 (2004); Rush et al., Neuropsychompharmacology, 30(2): 405-416 (2005); and Rush et al., Biol. Psychiatry, 59(6): 493-501 (2006)) and was obtained at baseline and at each bi-weekly clinic visit. […] Participants who scored “0” on this item before citalopram treatment, but who scored 1, 2, or 3 on the same item at least once while receiving citalopram were defined as TESI cases (n=120). […]

For `CN(C)CCCC1(c2ccc(F)cc2)OCc2cc(C#N)ccc21` (stereo not shown) [citalopram], the “TESI cases (scored 0 on QIDS-SR16 item 12 before citalopram treatment, but 1, 2 or 3 at least once while receiving citalopram)” value was found to be 120 participants.
